Results on 80 molecules are retold here after paper PMC4552634, “A New Set of Chemical Starting Points with Plasmodium falciparum Transmission-Blocking Potential for Antimalarial Drug Discovery” (PLoS ONE, 2015).

SMILES strings stand for the structures.

For orientation: inhibition means the change of the read-out against control, counted positive when it falls.

The test system of the first experiment is P. falciparum stage V gametocytes. Nature of the experiment: microbe, parasite or virus in culture. Also noted: BacTiter-Glo ATP luminescence viability of purified stage V gametocytes in 384-well plates, per cent inhibition versus DMSO. The settings on record: Plasmodium falciparum, 48 h, read-out: % Inhibition.
In the case of `COc1ccc2c(NN=Cc3ccc(F)cc3)ccnc2c1` [TCMDC-142135], the inhibition at 5 µM is 5.77%.
Same read-out and setting: as for `COc1ccc2nccc(NN=Cc3ccccc3[N+](=O)[O-])c2c1` [TCMDC-142136], the figure is 27.9%; as for `COc1ccc2nccc(NN=Cc3cccc([N+](=O)[O-])c3)c2c1` [TCMDC-142137], 53.9%.
As to `COc1ccc2c(N/N=C/c3cccc([N+](=O)[O-])c3)ccnc2c1` [TCMDC-142138], the inhibition at 5 µM was found to be 79.5%.
For the molecule `COc1ccc2nccc(NN=Cc3ccc([N+](=O)[O-])cc3)c2c1` [TCMDC-142139], the inhibition at 5 µM was -3.02%.
Same read-out and setting: the value for `COc1ccc2c(N/N=C/c3ccccc3[N+](=O)[O-])ccnc2c1` [TCMDC-142140] was 101%; that for `COc1cccc2c(N/N=C/c3ccccc3[N+](=O)[O-])ccnc12` [TCMDC-142141] was 90.8%; that for `COc1cccc2c(N/N=C/c3cccc([N+](=O)[O-])c3)ccnc12` [TCMDC-142142] was -28.6%.
The same measure, in the same setting: as for `COc1ccc2nccc(NN=CC=Cc3ccccc3)c2c1` [TCMDC-142143], the figure is 39%.
With `COc1ccc2c(NN=CC=Cc3ccccc3)ccnc2c1` [TCMDC-142144], the inhibition at 5 µM was -5.92%.
As to `COc1ccc2nccc(NN=Cc3ccc(N(C)C)cc3)c2c1` [TCMDC-142145], the inhibition at 5 µM is -119%.
The same measure, in the same setting: the value for `COc1ccc2c(NN=Cc3ccc(N(C)C)cc3)ccnc2c1` [TCMDC-142146] was 97.5%.
As for `FC(F)(F)c1ccc2nccc(NN=Cc3ccccc3Cl)c2c1` [TCMDC-142147], the inhibition at 5 µM is -24.8%.
Still for that read-out and setting: the value for `FC(F)(F)c1ccc2nccc(NN=Cc3cccc(Cl)c3)c2c1` [TCMDC-142148] was 56%; that for `FC(F)(F)c1ccc2c(NN=Cc3cccc(Cl)c3)ccnc2c1` [TCMDC-142149] was -44.9%; that for `O=[N+]([O-])c1cccc(/C=N/Nc2ccnc3ccc(C(F)(F)F)cc23)c1` [TCMDC-142150] was 7.31%.
On to `Fc1cccc(C=NNc2ccnc3ccc(C(F)(F)F)cc23)c1` [TCMDC-142151], for which the inhibition at 5 µM was -62.1%.
Turning to `Fc1ccc(C=NNc2ccnc3ccc(C(F)(F)F)cc23)cc1` [TCMDC-142152], the inhibition at 5 µM was -15.6%.
Still for that read-out and setting: the value for `FC(F)(F)c1ccc2nccc(NN=CC=Cc3ccccc3)c2c1` [TCMDC-142153] was -25.7%; that for `Cc1cc(NN=Cc2ccccc2Cl)c2cc(C(F)(F)F)ccc2n1` [TCMDC-142154] was -77.2%; that for `Cc1cc(NN=Cc2ccc(Cl)cc2)c2cc(C(F)(F)F)ccc2n1` [TCMDC-142155] was -3.11%.
Still for that read-out and setting: the value for `Cc1cc(N/N=C/c2ccccc2[N+](=O)[O-])c2cc(C(F)(F)F)ccc2n1` [TCMDC-142157] was 4.83%; that for `Cc1cc(NN=Cc2ccc(F)cc2)c2cc(C(F)(F)F)ccc2n1` [TCMDC-142158] was -75.7%.
Turning to `Cc1cc(NN=Cc2ccc(F)cc2)c2ccc(C(F)(F)F)cc2n1` [TCMDC-142159], the inhibition at 5 µM was -183%.
Consider `Cc1cc(NN=Cc2ccc(Cl)cc2)c2ccc(F)cc2n1` [TCMDC-142160], for which the inhibition at 5 µM is -41.4%.
`Cc1cc(NN=Cc2cccc(Cl)c2)c2ccc(F)cc2n1` [TCMDC-142161]: the inhibition at 5 µM was -34%.
Same read-out and setting: as for `Cc1cc(NN=Cc2ccccc2Cl)c2ccc(F)cc2n1` [TCMDC-142162], the figure is -52.4%; as for `Cc1cc(NN=Cc2ccc(Cl)cc2)c2cc(F)ccc2n1` [TCMDC-142163], 56.5%; as for `Cc1cc(NN=Cc2cccc(Cl)c2)c2cc(F)ccc2n1` [TCMDC-142164], -59.6%.
For `Cc1cc(NN=Cc2ccccc2Cl)c2cc(F)ccc2n1` [TCMDC-142165], the inhibition at 5 µM was -39.2%.
The same measure, in the same setting: the value for `Cc1cc(N/N=C/c2cccc([N+](=O)[O-])c2)c2cc(F)ccc2n1` [TCMDC-142166] was -21.6%; that for `Cc1cc(N/N=C/c2ccccc2[N+](=O)[O-])c2cc(F)ccc2n1` [TCMDC-142167] was -36.5%; that for `Cc1cc(N/N=C/c2ccccc2[N+](=O)[O-])c2ccc(F)cc2n1` [TCMDC-142168] was -45.1%.
The same measure, in the same setting: the value for `Cc1cc(N/N=C/c2cccc([N+](=O)[O-])c2)c2ccc(F)cc2n1` [TCMDC-142169] was 109%; that for `Cc1cc(N/N=C/c2ccc([N+](=O)[O-])cc2)c2ccc(F)cc2n1` [TCMDC-142170] was 105%; that for `Cc1cc(NN=Cc2ccccc2F)c2cc(F)ccc2n1` [TCMDC-142171] was -53.4%.
For `Cc1cc(NN=Cc2ccc(F)cc2)c2cc(F)ccc2n1` [TCMDC-142172], the inhibition at 5 µM is -47.2%.
Regarding `Cc1cc(NN=Cc2cccc(F)c2)c2cc(F)ccc2n1` [TCMDC-142173], the inhibition at 5 µM is -60.6%.
With `Cc1cc(NN=Cc2cccc(F)c2)c2ccc(F)cc2n1` [TCMDC-142174], the inhibition at 5 µM was -36.6%.
On the same count and under the same terms, as for `Cc1cc(NN=Cc2ccccc2)c2cc(F)ccc2n1` [TCMDC-142175], the figure is -16.9%; as for `Cc1cc(NN=CC=Cc2ccccc2)c2ccc(F)cc2n1` [TCMDC-142176], -23.9%.
As to `Cc1cc(NN=CC=Cc2ccccc2)c2cc(F)ccc2n1` [TCMDC-142177], the inhibition at 5 µM is -42.3%.
As to `N=C(N)c1ccc(/C=C/c2ccc(C(=N)N)cc2O)cc1` [TCMDC-142178], the inhibition at 5 µM worked out at 1.54%.
On the same count and under the same terms, the value for `CC1(C)N=C(N)N=C(N)N1c1ccc2ccccc2c1` [TCMDC-142179] was -17.5%; that for `CC1(C)N=C(N)N=C(N)N1c1ccc(Cl)c(Cl)c1` [TCMDC-142180] was 61.6%.
Same read-out and setting: the value for `COc1cccc2c(NN=Cc3ccccc3F)ccnc12` [TCMDC-142181] was -26%; that for `CCCCCC(C)C(C)c1cc(O)c2c3c(c(=O)oc2c1)CN(Cc1ccccc1)CC3` (centres unmarked) [TCMDC-142182] was 75.7%.
In the case of `COc1cccc(C=NNc2cc(C)nc3ccccc23)c1` [TCMDC-142183], the inhibition at 5 µM was -15.9%.
As to `COc1ccc(C=NNc2cc(C)nc3ccccc23)cc1OC` [TCMDC-142184], the inhibition at 5 µM was -5.19%.
With `COc1ccc(C=NNc2cc(C)nc3ccccc23)c2ccccc12` [TCMDC-142185], the inhibition at 5 µM came out at 93.9%.
For the molecule `CCn1c2ccccc2c2cc(C=NNc3cc(C)nc4ccccc34)ccc21` [TCMDC-142186], the inhibition at 5 µM worked out at 85.3%.
On the same count and under the same terms, the value for `CCOc1ccc2c(NN=Cc3ccccn3)cc(C)nc2c1` [TCMDC-142187] was 20.9%.
On the same count and under the same terms, as for `N=C(N)c1cccc(OCCCOc2cccc(NC(=O)Nc3ccc([N+](=O)[O-])cc3)c2)c1` [TCMDC-142189], the figure is 24.9%.
Regarding `CCNc1c2ccc(Cl)cc2nc2ccc(OC)cc12` [TCMDC-142190], the inhibition at 5 µM was -21.5%.
Still for that read-out and setting: the value for `CCCCCCCCNc1c2ccc(Cl)cc2nc2ccc(OC)cc12` [TCMDC-142191] was 0.773%; that for `CCOc1ccc2c(NN=Cc3cccc(Cl)c3)cc(C)nc2c1` [TCMDC-142192] was -2.16%; that for `CCOc1ccc2c(NN=Cc3ccccc3F)cc(C)nc2c1` [TCMDC-142193] was 98.2%.
Still for that read-out and setting: as for `CCOc1ccc2c(NN=Cc3cccc(F)c3)cc(C)nc2c1` [TCMDC-142194], the figure is -6.63%; as for `CCOc1ccc2c(N/N=C/c3cccc([N+](=O)[O-])c3)cc(C)nc2c1` [TCMDC-142195], 115%.
Still for that read-out and setting: the value for `COc1ccc(C=NNc2cc(C)nc3ccccc23)c(OC)c1` [TCMDC-142196] was 98.4%; that for `COc1cccc(C=NNc2cc(C)nc3c(OC)cccc23)c1` [TCMDC-142197] was 92.7%; that for `COc1cc(OC)c(OC)cc1C=NNc1cc(C)nc2ccccc12` [TCMDC-142198] was 100%.
`COc1ccc2nc(C)cc(NN=Cc3cc(OC)c(OC)cc3OC)c2c1` [TCMDC-142199]: the inhibition at 5 µM is -26%.
Same read-out and setting: the value for `COc1cc(C=NNc2cc(C)nc3c(OC)cccc23)cc(OC)c1OC` [TCMDC-142200] was 84.3%; that for `CCOc1ccc2c(NN=Cc3ccc(F)cc3)cc(C)nc2c1` [TCMDC-142201] was 105%; that for `O=[N+]([O-])c1ccccc1C=NNc1c2c(nc3ccccc13)CCCC2` [TCMDC-142202] was -53.6%.
Consider `CCOc1ccc2c(NN=Cc3ccccc3OC)cc(C)nc2c1` [TCMDC-142203], for which the inhibition at 5 µM amounted to 87.4%.
On the same count and under the same terms, as for `CCOc1ccc2c(NN=Cc3cccc(OC)c3)cc(C)nc2c1` [TCMDC-142204], the figure is 80.8%; as for `CCOc1ccc2c(NN=Cc3cccc(OC)c3OC)cc(C)nc2c1` [TCMDC-142205], 40.8%.
With `CCOc1ccc2c(NN=Cc3ccc(OC)c(OC)c3)cc(C)nc2c1` [TCMDC-142206], the inhibition at 5 µM amounted to 95.7%.
As for `CCOc1ccc2c(NN=Cc3cc(OC)c(OC)cc3OC)cc(C)nc2c1` [TCMDC-142207], the inhibition at 5 µM stood at 101%.
The same measure, in the same setting: the value for `CCOc1ccc2c(NN=Cc3cc(OC)c(OC)c(OC)c3)cc(C)nc2c1` [TCMDC-142208] was 101%.
Same read-out and setting: the value for `CCOc1ccc2c(NN=Cc3c4ccccc4cc4ccccc34)cc(C)nc2c1` [TCMDC-142209] was 106%; that for `CC(C)(C)CC(C)(C)c1ccc(O)c(C(=O)Nc2cccc([N+](=O)[O-])c2)c1` [TCMDC-142210] was 8.52%; that for `CC(C)(C)CC(C)(C)c1ccc(O)c(C(=O)Nc2ccc([N+](=O)[O-])cc2)c1` [TCMDC-142211] was -13%.
The same measure, in the same setting: as for `CN(C)c1ccc(C=Cc2ccc3ccccc3n2)c(Cl)c1` [TCMDC-142212], the figure is 36.3%; as for `Cc1ccc2c(c1[N+](=O)[O-])N=NCC2Oc1ccccc1` (centres unmarked) [TCMDC-142213], 38.1%.
With `CC(C)(C)c1cc(Cl)cc(C(=O)Nc2cc([N+](=O)[O-])ccc2Cl)c1O` [TCMDC-142214], the inhibition at 5 µM was found to be 36.2%.
The same measure, in the same setting: as for `COc1ccc(C=NNc2ccnc3ccccc23)c2ccccc12` [TCMDC-142215], the figure is -96.9%.

Staying with this experiment, now noted: Plasmodium falciparum, 48 h; read-out: % Inhibition.
As for `CCCCCC(C)C(C)c1cc(O)c2c(c1)OC(C)(C)c1cnccc1-2` (centres unmarked) [TCMDC-142188], the inhibition at 5 µM is -17.5%.
